In a melting point compilation (Tetko et al.; mined from patent text by program, amines drawn as free bases though some values may be those of a salt) one finds melting point data, which are given here for 88 molecules.

Structures are written as SMILES.

Usually melting point stands for the temperature, or range, at which the solid turns liquid. The molecule `COc1cc(OC)nc(NC(=O)NS(=O)(=O)Nn2cccc2C(=O)N(C)C)n1` yielded a melting point of 150 to 152 °C.
As for `CC(C)C(O)(c1ccccc1)c1cc(Cl)ccc1O` (stereo not drawn), the melting point stood at 114 °C.
In the case of `CCCCc1ncc(C(C)CC(=O)O)n1Cc1ccccc1Cl` (stereo not drawn), the melting point was in the range of 131 to 133 °C.
In turn, `COc1cc(C[C@@H](NC(C)=O)C(=O)O)ccc1OC(C)=O` registered a melting point of 174 to 175 °C.
`CC1=C2OCOC2CC(C)(C)C1(O)C[Si](C)(C)C` (stereo not drawn) displayed a melting point of 63 to 64.5 °C.
`O=C(Oc1ccccc1Br)c1cc(-c2ccccc2)cn1CCc1ccccc1Br` had a melting point of 90 to 92 °C.
Then `Fc1ccc(NCc2ccc(NCc3ccccc3)nc2)nc1`, with 166 to 168 °C; and `N#Cc1ccc(-c2cccc(-c3nc4cc(C#N)ccc4[nH]3)c2)nc1`, with 281 to 282 °C.
As to `CCCCC(=O)NNC(=O)c1ccc([N+](=O)[O-])cc1`, the melting point is 185 to 187 °C.
Molecule `Cc1nc2c(O[C@@H]3c4ccccc4C[C@H]3O)cccn2c1N=O` (relative stereo) had a melting point of 178 to 179 °C.
For `Cc1ccc(C(=O)CC(=O)OC(C)(C)C)c(O)c1`, the melting point was in the range of 88 to 90 °C.
In turn, `O=C(Nc1cccc2ccccc12)N1C(=O)C2(CCCCC2)NC12CCCCC2` displayed a melting point of 157 to 160 °C.
As to `Cc1csc2nc(-n3cccn3)nc(NCc3ccc4c(c3)OCO4)c12`, the melting point is 210 °C.
Turning to `CCOC(=O)C1=C(C)Nc2cc[nH]c(=O)c2C1c1cccs1` (stereo not drawn), the melting point was in the range of 284 to 285 °C.
With `CS(=O)(=O)Cc1c(C(=O)NN2CCCCC2)nn(-c2ccc(Cl)cc2Cl)c1-c1ccc(Cl)cc1`, the melting point stood at 171 °C.
The figure for `COc1cc2cc(C)c(CO)c(-c3ccnc(Br)c3)c2cc1OC` is 106 to 108 °C; for `O=C(CCNC(=O)OCc1ccccc1)NC1OC(C(=O)O)CC1O` (stereo not drawn) it is 195 to 198 °C; for `COc1cc(C=NNC(=O)c2ccc(O)c(N)c2)cc(OC)c1OCc1ccc(C(C)C)cc1` it is 174 to 175 °C.
Then `CC(OC1CCCCO1)C(O)(Cn1cncn1)c1ccc(F)cc1F` (stereo not drawn), with 93 to 95 °C; and `CCOC(=O)c1cc2cc(F)cc(Br)c2[nH]1`, with 125 °C; and `COc1cccc2c1C(=O)OC2c1ccccc1` (stereo not drawn), with 135 to 138 °C.
`O=c1[nH]c(N[N+](=O)[O-])ncc1Cc1ccn(Cc2ccccc2)c(=O)c1` had a melting point of 200 to 201 °C.
As for `O=C1CCc2ncc3cc(F)ccc3c2N1`, the melting point was 266 to 267 °C.
Consider `OCCN1CC[C@@H]2[C@H]1CCC[C@@]2(O)c1ccc(Cl)c(Cl)c1` (racemic), for which the melting point is 161 °C.
Consider `Nc1cc(OCc2ccccc2)c(OCc2ccccc2)cn1`, for which the melting point lay within 111 to 113 °C.
On to `CC1(C)Cc2sccc2C(=O)N1`, for which the melting point is 153 to 154 °C.
`CN(C)C(=O)Nc1c(C(=O)c2ccccc2)[nH]c2cc(Cl)ccc12`: the melting point is 222 to 223 °C.
In turn, `O=S(=O)(c1cccs1)c1ccc(O)c(Cl)c1Cl` registered a melting point of 220 °C.
The figure for `N#Cc1nc(F)c(F)c(N)c1Cl` is 190 to 192 °C; for `Cc1nc(N)nc(N)c1CCC(C)c1ccc(Cl)cc1Cl` (stereo not drawn) it is 164 to 168 °C.
Molecule `Cc1cc(N)nc(CCC(=O)Nc2cc(I)cnc2N)c1` yielded a melting point of 172 °C.
The molecule `O=C(O)c1cc2sccc2cn1` came in with a melting point of 212 °C.
The figure for `CCOC(=O)C(CCCCCc1ccc(Cl)cc1)C(N)=O` (stereo not drawn) is 110 to 111 °C; for `CN(C(C)(C)CC(=O)Oc1ccccc1C(C)(C)C)S(=O)(=O)C(F)(F)F` it is 42 to 44 °C.
Then `COc1ccc(CCn2cc(C(=O)NCCN(C)C)c3nc4c(C)cccc4cc3c2=O)cc1OC`, with 113 to 114 °C; and `CNc1nc(SCc2ccc(OC)cc2)nc(N2CCOCC2)c1N`, with 79.5 to 84 °C; and `COc1cc(C=CC(=O)CCCOc2ccccc2)ccc1O`, with 67 to 70 °C.
Molecule `COc1ccc2c(c1)c(OC(C)C)c(C(=O)Nc1ccccc1O)n2-c1ccccc1` registered a melting point of 168 to 170 °C.
In turn, `O=C1Nc2cccnc2N(C(=O)N2CCCC(CCCN3CCCCC3)C2)c2ccccc21` (stereo not drawn) registered a melting point of 123 to 125 °C.
For the molecule `CCOC(=O)c1nnc2ccc(N3C(=O)C=CC3=O)cc2c1O`, the melting point lay within 257 to 260 °C.
Consider `Cc1c(N2C(=O)[C@H]3[C@@H](O)CCN3C2=O)ccc(C#N)c1Cl`, for which the melting point was in the range of 237 to 238 °C.
Turning to `O=C(O)c1conc1-c1ccccc1`, the melting point was 163 to 164 °C.
Then `N=C(Nc1ccccc1I)Nc1cccc2ccccc12`, with 154 to 155 °C; and `CCOC(=O)c1cn(CC)c2cc(-c3csc(CN(C)C(C)=O)n3)c(F)cc2c1=O`, with 173 to 175 °C; and `CNC1Oc2cc(Cl)cc(-c3cc(F)ccc3F)c2O1` (stereo not drawn), with over 250 °C.
With `COc1ccc(-c2ccc([N+](=O)[O-])cc2)cc1OC1CC2CCC1C2` (stereo not drawn), the melting point lay in the range of 134 to 135 °C.
Turning to `COc1ccc(-c2nc3sccn3c2/C=C/C(=O)c2ccc[nH]2)cc1`, the melting point is 177 to 179 °C.
The molecule `Cc1ncc2c(n1)-c1ccccc1C2(Cc1ccnc(F)c1)Cc1ccnc(F)c1` showed a melting point of 114 to 115 °C.
On to `COC(=O)c1cc2nnn(-c3ccccc3)c2nc1OCc1ncnn1C`, for which the melting point lay in the range of 188 to 190 °C.
The molecule `CCOC(=O)c1cc2cc(C=O)cc(C(C)CC)c2oc1=O` (stereo not drawn) returned a melting point of 89 to 90 °C.
Take `CC(C)(C)c1cc(N=Nc2cc(Cl)ccc2Cl)c(O)c(C(C)(C)C)c1`: the melting point is 121 to 126 °C.
The molecule `COCCOc1ccc(/C=C/C(=O)NS(=O)(=O)C(F)(F)F)c(Oc2ncc(C(F)(F)F)cc2Cl)c1` returned a melting point of 126 to 128 °C.
For `O=C1COc2cc3[nH]c(C(=O)O)cc3cc2N1`, the melting point fell in the range of 231 to 237 °C.
For `CCCCOc1c(CNC(=O)OC(C)(C)C)n(CC(C)C)c(=O)c2ccc(C(N)=S)cc12`, the melting point is 189 to 190 °C.
Turning to `CC(=O)c1cc(CO)c(O)cc1O`, the melting point was in the range of 151 to 152 °C.
Take `CC(C)Cc1nn(C)c(=O)c2cc(Cc3cccc4ccccc34)oc12`: the melting point fell in the range of 73 to 75 °C.
For `Cc1ccc2c(c1)C=Cc1cc(C)ccc1C2c1cn(-c2cc(N(C)CC(=O)Nc3nc(CC(=O)O)cs3)ncn2)c(=O)[nH]c1=S`, the melting point is 215 °C.
Molecule `COc1ccc2c(c1)c(C)c(CCCO)n2Cc1ccc(Cl)cc1` showed a melting point of 118 °C.
On to `c1cnc(NCCCNCC2CCc3ccc4c(c3O2)CCCC4)nc1` (stereo not drawn), for which the melting point worked out at 57.6 °C.
The figure for `O=C(NCc1ccc(Cl)cc1)c1cn(N2CCOCC2)c2ccc(CN3CCOCC3)cc2c1=O` is 195 to 196 °C.
The figure for `CN1CCN(c2ncc(-c3ccc(Cl)cc3Cl)c(N)n2)CC1` is 137 °C.
Then `CN1CC(O)c2cc(S(N)(=O)=O)sc2S1(=O)=O` (single isomer, unassigned; (+)), with 168 °C; and `Cn1nc(Cl)c(C(=O)C(Br)c2ccccc2)c1Cl` (stereo not drawn), with 74.5 to 75.5 °C.
`CC(C)n1nnc(NC(=O)C(c2ccccc2)c2ccccc2)n1` came in with a melting point of 175 to 177 °C.
`Cc1c(C(=O)O)oc2ccc(Cc3cccnc3)cc12` yielded a melting point of 223 to 225 °C.
Regarding `COc1ccc2c(c1)c(CC(=O)ON(C(N)=O)C(C)c1cc3ccccc3s1)c(C)n2C(=O)c1ccc(Cl)cc1` (stereo not drawn), the melting point lay within 153 to 155 °C.
With `O=[N+]([O-])c1cccc(N2CCOCC2)c1`, the melting point lay in the range of 87 to 90 °C.
The figure for `CNC(=O)c1cc2c(Oc3ccc(C(=O)N4CCOCC4)cc3)cncc2s1` is 173 to 175 °C; for `Cc1nc(-c2ccc(C#N)cc2)cn1-c1ccc(C#N)cc1` it is 212 to 220 °C.
Molecule `COc1ccccc1-c1cnn2ccc(N3CCN(C(=O)OC(C)C)CC3)nc12` yielded a melting point of 57 to 59 °C.
For the molecule `O=C(NCCCn1ccnc1-c1ccccc1)c1cc2ccccc2[nH]1`, the melting point lay in the range of 167 to 169 °C.
Then `N#Cc1cc([N+](=O)[O-])ccc1NC(=O)c1cccc([N+](=O)[O-])c1`, with 205 to 206 °C; and `N#Cc1c(N2CCNCC2)c2cc(Cl)ccc2n(Cc2ccccc2)c1=O`, with 156 °C.
Consider `Cc1cc(SCC#Cc2cccc(C(F)(F)F)c2)ccc1OCC(=O)O`, for which the melting point was 81 to 82 °C.
In turn, `CN(Cc1ccc(C(=O)Nc2ccc(Nc3cc(-c4cccc5c4oc4ccccc45)ncn3)cc2)cc1)C(=O)OC(C)(C)C` displayed a melting point of 225 to 230 °C.
`CCOC(=O)/C=C(C)/C=C/C=C(\C)C1=Cc2cc(C(C)(C)C)cc(C)c2OC1` displayed a melting point of 73 °C.
`O=CC[C@@H](O)[C@H](O)[C@H](O)CO` had a melting point of 146 to 149 °C.
`NC(=O)N(O)CCn1cc(Sc2ccccc2)c2ccccc21` showed a melting point of 95 to 99 °C.
For `CC(=O)OCC1OC(n2cc(C(I)=CI)c(=O)[nH]c2=O)C(OC(C)=O)C1OC(C)=O` (stereo not drawn), the melting point fell in the range of 83 to 85 °C.
On to `CC(C)C(NC(=O)NCc1ccccn1)C(=O)NC(Cc1ccccc1)C(O)C(Cc1ccccc1)NC(=O)C(NC(=O)NCc1ccccn1)C(C)C` (stereo not drawn), for which the melting point was in the range of 198 to 199 °C.
With `CC(O)c1cccc(-c2ccc3nc(-c4ccc(Cl)cc4)cn3c2)c1` (stereo not drawn), the melting point was 168 to 170 °C.
In turn, `CCCCCCCCCCCCc1cc(N)no1` gave a melting point of 79.5 to 81 °C.
`O=S(=O)(c1ccc(O)cc1)c1ccc(-c2ccccc2)cc1` showed a melting point of 246 to 248 °C.
In turn, `COc1ccc2c(c1)C(C)(C)NC(=O)O2` displayed a melting point of 178 to 180 °C.
As to `COc1cc([N+](=O)[O-])ccc1S(=O)(=O)n1c(=O)n(C2CCCCC2)c2cc(Cl)ccc21`, the melting point is 185 °C.
As to `COc1cc2c3c(sc2c(Cl)c1Cl)CCCC3`, the melting point fell in the range of 123 to 125 °C.
Take `CC(C)(C)c1cc(C(=O)c2cccs2)cc(CN(CCO)CCO)c1O`: the melting point was 108 to 110 °C.
As for `CC(C)(C)OC(=O)N1CCC(OCc2ccccc2)C1CC(O)Cn1cnc2cccc(C(F)(F)F)c2c1=O` (stereo not drawn), the melting point was determined as 224 °C.
